From patent US20110151089A1, “COMPOSITION CONTAINING MAGNESIUM GLUTAMATE WHICH CAN ENHANCE THE SALTINESS OF FOODS AND DRINKS” (priority 2008, published 2011)

Assay: Sensory evaluation test of miso sample solutions without broth, experts' panel of six adult persons (Example 2)
Set-up: species or system human
Details: converted sodium chloride concentration about 0.625%, scale with 7 gradations, from 0 to 7
Source text: A scale with 7 gradations, from 0 to 7, was used to evaluate the “strength of saltiness” and “overall strength of miso soup flavor”.

In the case of `N[C@@H](CCC(=O)[O-])C(=O)[O-].[Mg+2]` [MDG, magnesium glutamate], the Strength of saltiness is reported as “improved”.
